{
  "source": "patent US5916586A",
  "about": "“Personal cleansing system comprising polymeric diamond-mesh bath sponge and liquid cleanser with deodorant composition” (priority 1996, dated 1999)",
  "key": {"[1]": {"biological_target": "T1, lipoxidase (ECI.13.1.13) (Glycine max, UniProt P08170)", "T1 sequence (P08170 1-839)": "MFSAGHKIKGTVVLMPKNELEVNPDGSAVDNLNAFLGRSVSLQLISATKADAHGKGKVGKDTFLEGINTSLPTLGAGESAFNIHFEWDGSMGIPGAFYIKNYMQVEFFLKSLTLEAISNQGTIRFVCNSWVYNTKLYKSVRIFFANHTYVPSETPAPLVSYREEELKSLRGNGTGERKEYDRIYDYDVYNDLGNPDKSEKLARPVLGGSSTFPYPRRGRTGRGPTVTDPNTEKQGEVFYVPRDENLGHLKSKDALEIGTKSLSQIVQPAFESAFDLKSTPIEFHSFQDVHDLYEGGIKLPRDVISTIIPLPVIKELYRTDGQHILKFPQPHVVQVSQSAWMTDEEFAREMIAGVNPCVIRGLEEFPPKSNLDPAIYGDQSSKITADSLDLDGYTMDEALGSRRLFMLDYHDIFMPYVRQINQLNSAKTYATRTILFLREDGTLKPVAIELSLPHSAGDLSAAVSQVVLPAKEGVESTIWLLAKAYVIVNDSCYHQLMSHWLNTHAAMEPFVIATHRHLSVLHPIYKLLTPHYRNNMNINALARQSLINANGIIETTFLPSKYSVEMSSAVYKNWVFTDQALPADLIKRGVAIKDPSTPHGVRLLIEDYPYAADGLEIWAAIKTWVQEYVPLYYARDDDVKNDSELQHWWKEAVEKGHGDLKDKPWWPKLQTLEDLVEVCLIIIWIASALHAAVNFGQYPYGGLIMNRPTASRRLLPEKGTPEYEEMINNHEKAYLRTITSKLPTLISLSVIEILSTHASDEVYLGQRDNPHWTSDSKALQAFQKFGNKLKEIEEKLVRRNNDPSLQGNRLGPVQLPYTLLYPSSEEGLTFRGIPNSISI", "test": "Lipoxidase test: inhibition of oxidation of linoleic acid by lipoxidase", "type": "biochemical", "conditions": "test substrate made with 0.5% by weight solution of material in ethanol, borate buffer pH 9.0, increase in OD at 234 nm"}, "[2]": {"test": "Morpholine test: depression of partial vapor pressure of morpholine beyond Raoult's Law (headspace GC)", "conditions": "morpholine 0.25 g + material 1 g, 37° C., 30 minutes equilibrium, headspace gas chromatography"}},
  "data": [
    {"molecule": "COC(=O)c1c(C)cc(O)c(C)c1O", "note": "[LRG 201]", "values": [
      {"measurement": "LIC (lipoxidase-inhibiting capacity, % inhibition)", "setting": "[1]", "result": 100, "unit": "%"},
      {"measurement": "RVR (Raoult variance ratio)", "setting": "[2]", "result": 1.21}
    ]}
  ]
}
